In patent US8580780B2, “6 substituted 2, 3,4,5 tetrahydro-1H-benzo[d]azepines as 5-HT2C receptor agonist” (Eli Lilly and Company, priority 2004, dated 2013):

How the values were obtained:
[1] = rat, in vivo; cited from earlier work
Marble burying assay = assay type: in vivo, male NIH Swiss mice; conditions: mice, 30 min session, with rotorod check
Excerpt: Marble burying in mice has been used to model anxiety disorders including obsessive-compulsive disorders (OCD) due to ethological study of the behavior (e.g. Gyertyan I. “Analysis of the marble burying response: Marbles serve to measure digging rather than evoke burying”, Behavioural Pharmacology 6: 24-31, (1995)) and due to the pharmacological effects of clinical standards (c.f., Njung'E K. Handley S L. “Evaluation of marble-burying behavior as a model of anxiety”, Pharmacology, Biochemistry & Behavior. 38: 63-67, (1991)); Borsini F., Podhorna J., and Marazziti, D. “Do animal models of anxiety predict anxiolytic effects of antidepressants?”, Psychopharmacology 163: 121-141, (2002)).
House experimentally-naïve male, NIH Swiss mice (Harlan Sprague-Dawley, Indianapolis, Ind.) weighing between 28-35g in groups of 12 for at least three days prior to testing in a vivarium with 12 h light and dark cycles. Conduct experiments during the light cycle in a dimly lit experimental testing room. Dose mice with vehicle or test compound and, after a specified pretreatment interval (generally 30 min.), place each mouse individually on a rotorod (Ugo Basile 7650) operating at a speed of 6 revolutions/min. and observe for falling. […]
Clinically effective standard compounds suppress marble burying at doses that are devoid of motor-impairing effects as measured on the rotorod. […]

Nestlet shredding = assay type: in vivo, male NIH Swiss mice; conditions: mice, 30 min
Excerpt: Mice naturally will construct nests of material available in their living environment. Since this behavior is obsessive in nature, it has been used to model OCD (Xia Li, Denise Morrow and Jeffrey M. Witkin, “Decreases in nestlet shredding of mice by serotonin uptake inhibitors: comparison with marble burying”, Psychopharmacology, submitted Jul. 14, 2003). House experimentally-naïve male, NIH Swiss mice (Harlan Sprague-Dawley, Indianapolis, Ind.) weighing between 28-35g in groups of 12 for at least three days prior to testing in a vivarium with a 12 h light/dark cycle. Conduct experiments during the light cycle in an experimental room with normal overhead fluorescent lighting. Dose mice with vehicle or test compound and after a specified pretreatment interval (generally 30 min.), place the mice individually in a 17×28×12 cm high plastic tub with about 5 mm sawdust shavings on the floor along with a pre-weighed multi-ply gauze pad (51 mm square). After 30 min., weigh the remainder of the game pad not removed by the mouse. Determine the weight of the gauze used for nestlet construction by subtraction. Compare the results for test compound treated mice to the results for vehicle control treated mice with Dunnett's test.
Clinically effective OCD treatment standard compounds suppress nestlet shredding at doses that are devoid of motor-impairing effects as measured by the rotorod test. […]

[2] = Schedule-induced polydipsia; assay type: in vivo, Wistar rats
Excerpt: Food-deprived rats exposed to intermittent presentations of food will drink amounts of water that are far in excess of their normal daily intake and in excess of their intake when given all of their food at one time (Falk J L. “Production of polydipsia in normal rats by an intermittent food schedule”, Science 133: 195-196, (1961)). This excessive behavior is persistent and has been used to model OCD.
Maintain Wistar rats on a food restricted diet (to maintain 85% free feeding weight), but with free access to water. Train the rats in a behavioral testing chamber to press a lever to receive a food pellet under a fixed interval schedule, such that the rats are rewarded with a 45 mg food pellet the first time they press a lever after a 120 second interval has elapsed. The fixed interval is then reset to 120 seconds and the process repeated. Thus, during a 90 min. test session, the rats can earn a maximum of 45 pellets. The behavioral chamber is also equipped with a water bottle that is weighed before and after the session to determine the amount of water consumed.
Administer test compounds on Tuesdays and Fridays. […] Compare the rates of lever pressing and water consumption for each animal's performance during sessions after test compound treatment with that animal's performance during control sessions, expressed as a percent of the control rate. […]

[3] = mouse, in vivo; cited from earlier work

In the case of `Clc1ccc2c(c1SCc1ccccn1)CCNCC2.O=C(O)CCC(=O)O`, the melting point is reported as 159 to 160 °C.

For `CN(C)CCCN1c2ccccc2CCc2ccc(Cl)cc21` [chlomipramine], the “schedule-induced polydipsia (clinically effective OCD standards)” value [1] is listed as “suppress schedule-induced polydipsia without producing notable changes in motor patterns, food intake, or behavior the following day”.

In the case of `CN(C)CCCN1c2ccccc2Sc2ccc(Cl)cc21` [chlorpromazine], the marble burying behavior (Marble burying assay) is reported as “decrease marble burying only at doses that also disrupt rotorod performance”.

With `C[C@H](N)Cc1ccccc1` [d-amphetamine] the nestlet shredding (Nestlet shredding) was “decreases nestlet shredding only at doses that produce motoric side effects”, the “Effect on polydipsia with co-administration of 5-HT2C antagonist” value ([2]; rat, in vivo) was “not prevented by the 5HT2C receptor antagonist” and the “schedule-induced polydipsia (excessive drinking)” value ([2]; rats, 90 min session) was “decreases excessive drinking only at behaviorally stimulating doses”.

For `CNCCC(Oc1ccc(C(F)(F)F)cc1)c1ccccc1` (centres unmarked) [fluoxetine], the “schedule-induced polydipsia (clinically effective OCD standards)” value [1] is given as “suppress schedule-induced polydipsia without producing notable changes in motor patterns, food intake, or behavior the following day” and the “marble burying (clinical standards, literature)” value [3] is given as “decrease burying”.
